{
  "source": "paper PMC5712521",
  "about": "“Dendrogenin A drives LXR to trigger lethal autophagy in cancers” (Nature Communications, 2017)",
  "key": {"[1]": {"test_system": "B16F10 cells", "assay": "DDA-induced cytotoxicity (cell death)", "format": "cell-based", "description": "(§1) Melanoma cells were seeded into 6-well plates at 60,000 cells per well and AML cells at 250,000 cells/ml. The cells were then treated with control solvent vehicle (1/1000 ethanol in water) or DDA. Where indicated, treated cells were incubated in the presence or absence of each inhibitor for time shown. Cell death was determined by the trypan blue exclusion assay. Cells were scraped and resuspended in trypan blue solution (0.25% (w/v) in PBS) and counted in a Malassez cell under light microscopy. Cell viability was then quantified by counting viable (trypan blue-negative) and dead cells (trypan blue-positive).\n(§2) Supplementary Fig. 1. a DDA inhibited m elanom a colony form ation. Melanom a cells were […]\n(§3) a 0.5% solution of crystal violet in water and analyzed by microscopy. Images are representative of 5 independent experiments. b Evaluation of DDA-induced cytotoxicity (cytotox) and clonogenicity (clono) inhibition in a subset of human (H) and mouse (M) m elanom a cell lines. T he BRaf status in m elanom a cells lines is shown. […]"}, "[2]": {"test_system": "SKMEL-28 cells", "assay": "DDA-induced cytotoxicity (cell death)", "format": "cell-based", "description": "as §1, §2, §3"}, "[3]": {"target": "T1, human liver-X-receptor LXRα (Homo sapiens, UniProt Q13133)", "T1 construct": "expressed in transfected cells; host or cells: HEK293T", "T1 sequence (Q13133 1-447)": "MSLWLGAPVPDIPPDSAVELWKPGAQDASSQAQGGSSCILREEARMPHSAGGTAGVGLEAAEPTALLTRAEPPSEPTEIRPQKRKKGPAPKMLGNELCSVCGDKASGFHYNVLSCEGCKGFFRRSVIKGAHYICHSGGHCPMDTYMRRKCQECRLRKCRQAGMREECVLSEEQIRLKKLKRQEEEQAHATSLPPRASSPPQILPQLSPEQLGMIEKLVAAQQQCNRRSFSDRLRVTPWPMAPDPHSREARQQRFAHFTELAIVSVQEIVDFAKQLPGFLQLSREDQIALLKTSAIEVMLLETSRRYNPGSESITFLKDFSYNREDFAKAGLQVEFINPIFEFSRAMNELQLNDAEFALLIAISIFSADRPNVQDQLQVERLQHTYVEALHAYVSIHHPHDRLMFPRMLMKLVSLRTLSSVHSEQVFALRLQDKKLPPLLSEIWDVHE", "T1 sequence (P48443 1-463 partner)": "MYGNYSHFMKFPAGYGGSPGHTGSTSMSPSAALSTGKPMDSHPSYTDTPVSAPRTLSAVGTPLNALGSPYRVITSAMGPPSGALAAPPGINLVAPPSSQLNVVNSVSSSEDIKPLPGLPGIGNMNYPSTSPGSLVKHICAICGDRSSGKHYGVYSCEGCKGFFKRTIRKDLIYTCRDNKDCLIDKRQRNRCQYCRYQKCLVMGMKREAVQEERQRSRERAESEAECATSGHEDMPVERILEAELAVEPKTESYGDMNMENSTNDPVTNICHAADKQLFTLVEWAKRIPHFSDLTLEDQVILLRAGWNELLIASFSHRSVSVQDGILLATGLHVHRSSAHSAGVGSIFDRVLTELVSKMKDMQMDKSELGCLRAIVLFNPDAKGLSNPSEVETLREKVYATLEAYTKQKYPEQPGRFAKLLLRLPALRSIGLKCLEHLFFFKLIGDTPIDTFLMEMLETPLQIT", "assay": "LXRE-luciferase gene reporter assay in HEK293T, LXRα", "format": "cell-based", "details": "DDA analogs", "excerpt": "(§4) HEK293T were used for luciferase assays. Cells were transfected using the PolyEthylenImine (PEI) method with human retinoid-X receptor (RXRγ) and human liver-X-receptors (LXRα or LXRβ) with LXRE-Luc; RXRγ and human farnesoid X receptor (FXR) with EcRE-Luc; RXRγ and human steroid and xenobiotic X receptor (SXR) with DR4-Luc; RXRγ and human peroxisome proliferator activated receptors (PPARα, or PPARγ) with PPRE-Luc; RXRγ and human retinoic acid receptor (RARα) with DR1-Luc; human AHR and human ARNT with a DRE-Luc; human vitamin D receptor (VDR) with VDRE-Luc. Cells were transfected with plasmids encoding human glucocorticoid receptor (GR), progesterone receptor (PR), or androgen receptor (AR) with MMTV-Luc; or estrogen receptors (ERα and ERβ) with an ERE-Luc. The day after transfection with the luciferase reporter gene construct, cells were seeded in 12-well plates (50,000 cells per well). After 6 h, cells were then treated with the following ligands dissolved in ethanol: 10 nM estradiol (E2) for ERα and ERβ; 10 nM R1881 for AR; 10 nM R5020 for PR; 10 nM dexamethasone for GR; 10 µM fenofibrate for PPARα; 100 nM rosiglitazone (BRL 49653) for PPARγ; 100 nM cis-retinoic acid (cRA) for RAR; 10 nM dioxine for AHR, 10 µM rifampicine for SXR and 10 µM 22(R) hydroxycholesterol (22(R)HC) for LXRα and LXRβ. At the end of each treatment, cells were lysed in 100 μl lysis buffer (Promega). Luciferase activity was measured using the luciferase assay reagent (Promega), according to the manufacturer’s instructions. Protein concentrations were measured using the Bradford method to normalize luciferase activities. For each condition, luciferase activity was calculated from the data of three independent wells."}, "[4]": {"test_system": "AML cells", "assay": "Immunoblot of caspase-3 and PARP in AML cells", "format": "cell-based, human", "details": "50 µM z-VAD-fmk alone (0 µM DDA), 24 h", "description": "Immunoblotting was carried out as described previously. Proteins were separated on SDS-PAGE gels, electro-transferred onto polyvinylidene difluoride membranes and incubated overnight at 4 °C with the following antibodies: anti-Atg3, anti-Atg5 (D1G9), anti-Atg7 (D12B11), anti-Beclin (D40C5), anti-caspase-3 (Cell Signaling), anti-Bcl-2 (Millipore), anti-Bax (Millipore), anti-LC3 (Sigma-Aldrich), anti-LXRα (SantaCruz), anti-LXRβ (SantaCruz), anti-Nur77 (Active motif), anti-NOR1 (R&D systems), anti-PARP (Cell Signaling), anti-Vps34 (Cell Signaling), or anti-Actin (Millipore). For visualization, an ECL plus kit (Amersham Biosciences) was used, and chemiluminescence was measured by autoradiography (Supplementary Fig. 9). Specific bands were quantified with ImageQuant software.\nSupplementary Fig. 6. […]\nAML cells treated with DDA for 24 h in the absence or presence of 50 µM z- VAD-fmk (a\ncaspase inhibitor). j Effect of z-VAD-fmk on DDA-induced c ytotox icit y in KG1 and HL60 cells. […]\nImages are\nrepresentative of 3 independent experim ents."}, "[5]": {"target": "T2, human liver-X-receptor LXRβ (Homo sapiens, UniProt P55055)", "T2 construct": "expressed in transfected cells; host or cells: HEK293T", "T2 sequence (P55055 whole entry, one chain of several)": "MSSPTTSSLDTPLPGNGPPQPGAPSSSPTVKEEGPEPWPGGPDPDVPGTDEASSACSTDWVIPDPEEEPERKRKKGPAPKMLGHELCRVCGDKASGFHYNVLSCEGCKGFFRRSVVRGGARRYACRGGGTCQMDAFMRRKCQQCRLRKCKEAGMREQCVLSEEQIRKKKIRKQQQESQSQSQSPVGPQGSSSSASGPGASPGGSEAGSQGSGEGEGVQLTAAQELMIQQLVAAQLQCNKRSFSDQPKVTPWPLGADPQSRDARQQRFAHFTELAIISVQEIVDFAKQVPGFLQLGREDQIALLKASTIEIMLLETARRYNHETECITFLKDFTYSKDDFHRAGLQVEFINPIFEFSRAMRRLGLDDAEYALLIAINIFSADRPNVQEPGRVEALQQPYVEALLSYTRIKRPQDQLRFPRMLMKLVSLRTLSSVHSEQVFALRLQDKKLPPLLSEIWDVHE", "assay": "LXRE-luciferase gene reporter assay in HEK293T, LXRβ", "format": "cell-based", "details": "DDA analogs", "excerpt": "as §4, with “After 6 h, cells were then treated with the following ligands dissolved in ethanol: 10 nM estradiol (E2) for ERα and ERβ; 10 nM R1881 for AR; 10 nM R5020 for PR; 10 nM dexamethasone for GR; 10 µM fenofibrate for PPARα; 100 nM rosiglitazone (BRL 49653) for PPARγ; 100 nM cis-retinoic acid (cRA) for RAR; 10 nM dioxine for AHR, 10 µM rifampicine for SXR and 10 µM 22(R) hydroxycholesterol (22(R)HC) for LXRα and LXRβ. At the end of each treatment, cells were lysed in 100 μl lysis buffer (Promega).” left out"}},
  "note": "Where a SMILES comes first, the peptide text is derived from it. The star is where a group is joined. Cbz = O=C(OCc1ccccc1)*; CH2F = FC*",
  "data": [
    {"compound": "CC(C)CCCC(C)C1CCC2C3CC(n4cncc4CCN)C4(O)CC(O)CCC4(C)C3CCC12C", "note": "(stereo not shown) [C17]", "values": [
      {"measurement": "cytotoxicity and clonogenicity inhibition", "setting": "[1]", "value": "inactive"},
      {"measurement": "cytotoxicity and clonogenicity inhibition", "setting": "[2]", "value": "inactive"},
      {"measurement": "LXRα-dependent agonistic or antagonistic activity", "setting": "[3]", "value": "switch from antagonist to agonist activity"}
    ]},
    {"compound": "COC(=O)C[C@H](NC(=O)[C@H](C)NC(=O)[C@@H](NC(=O)OCc1ccccc1)C(C)C)C(=O)CF", "note": "[z-VAD-fmk, reference compound] (Cbz-Val-Ala-Asp(OMe)-CH2F)", "values": [
      {"measurement": "cleaved PARP, densitometry", "setting": "[4]", "value": 0.6},
      {"measurement": "cleaved casp 3, densitometry", "setting": "[4]", "value": 0.4}
    ]},
    {"compound": "CC(C)CCCC(C)C1CCC2C3C[C@@H](NCCO)[C@@]4(O)C[C@@H](O)CC[C@]4(C)C3CC[C@]12C", "note": "(stereo partly shown) [C41]", "values": [
      {"measurement": "LXRα-dependent agonistic or antagonistic activity", "setting": "[3]", "value": "switch from antagonist to agonist activity"},
      {"measurement": "LXRβ-dependent agonistic or antagonistic activity", "setting": "[5]", "value": "antagonist-agonist switch"}
    ]}
  ]
}
